One data set concerns secreted IL6. The experiment in a line: Interleukin 6 (IL6) secretions in coculture. The data set is classed as cell-based, human. The text has this: To assess the effect of the test element on inflammation, we assayed extracellular concentrations of secreted IL6. The results were normalized by the number of fibroblasts and represented as a percentage of the solvent condition DMSO (FIG. 13).

A further data set concerns S. typhimurium TA 98. The experiment in a line: Ames test (OECD 471), plate incorporation assay. The data set is classed as cell-based, Salmonella typhimurium. The note with it: TA 98 with S9, positive control, 3.0 μg/plate (Table 3).
The next data set concerns NADPH-oxidase complex. The note with it: Zhang, Yi et al., American Journal of Hypertension, 2005; cited from earlier work.
Data set [1] has as its system reconstructed artificial human skin model (normal human epidermal keratinocytes). The experiment in a line: In vitro skin irritation, reconstructed human epidermis (OECD 439), MTT. The data set is classed as cell-based. The note with it: 42 h treatment, 42 hours incubation.
Description: The purpose of this test is to evaluate if the tested material is, or is not a skin irritant, according to the method described in OECD 439. This method uses the human artificial skin model (EPISKIN™, EpiDerm™, Episkin™ RHE) to assess the skin irritation of chemical substances, mixtures and to properly label them to this respect if applicable.
The test is based on the evaluation of cell survival after the exposure to the substance through MTT assay and by comparison with epidermis treated with phosphate buffer only (negative control). The MTT method is a colorimetric assay that allows to determine the percentage of cells alive within an in vitro cultured tissue. This assay is based on the ability of the mitochondrial succinate dehydrogenase enzyme to metabolize the nitro-blue tetrazolium salt, giving a colored compound that can be measured by spectrophotometer reading. […]
Epidermis units are treated with 1 mg/ml MTT solution (3-[4,5-dimethylthiazol-2-yl]-2,5-diphenyl tetrazolium bromide) for 3 h at 37° C. […] 2 aliquots of every sample are transferred to a 96 well plate for the reading. The absorbance is read at the wavelength of 570 nm with a colorimeter (Tecan model Infinite 200 PRO) equipped with a microplate reader.

“And” between values parts separate entries of the source, which are not always exact repeats. Identical values can stand only once.

This is an account of results in patent publication US20250034191A1, “LIGININ FLOWER PRODUCTION AND USES THEREOF” (SILICYCLE INC., priority 2021, published 2025).

Excerpt for S. typhimurium TA 98: The purpose of the test is to investigate the possible genotoxic activity exerted by the tested substance in bacterial strains of Salmonella typhimurium, with and without metabolic activation with S9.
The Ames test allows for detecting the induction of point mutations in nucleotide bases, such as deletions, insertions, transversions and frameshift mutations by using modified Salmonella typhimurium strains. These strains carry a defective gene in the histidine operon making them auxotroph for this amino acid (mutants His-which require histidine in the culture medium for growth). The method guiding principle is based on the reverse mutation phenomenon by which bacteria exposed to a mutagenic substance may change back and become again prototroph concerning histidine (His+). The bacterial cells in growth phase are exposed to different concentrations of the test agent and mutagenic activity is determined by the capability of the test substance to induce a significant increase in the number of revertant (histidine-independent mutant, His+) in comparison to the spontaneous reversions occurring in the control cultures.
Some chemical agents are not directly mutagen but become so by following transformation and metabolic activation occurring in the organism by liver enzyme activity. To study this genotoxic effect, rat liver microsomal fraction (S9) has been added. The employ of S9 allows identifying substances that act as indirect mutagen.
In this assay, 5 bacterial strains TA 1535, TA100, TA 102, TA 1537 and TA98 have been used and their characteristics are illustrated in Table 3. Each tester strains contains a different type of mutation in the histidine operon. TA 1535 and TA 100 strains are specific testers for mutagens causing base substitutions. The TA 102 strain is used to detect mutagens that require an intact excision repair system. […] Furthermore, the TA 102 strain contains the multicopy plasmid, pAQ1, which confers tetracycline resistance. The frameshift tester strains used are TA 1537 and TA 98. TA 98, like TA 100, is ampicillin resistant. All S. typhimurium strains carry, along with the defect in the histidine gene (His−), a deep rough (rfa) character, a mutation that causes partial loss of the lipopolysaccharide barrier that coats the surface of the bacteria and increases permeability to large molecules. […] For technical reason, the deletion excising the uvrB gene extends through the bio gene and, consequently, these bacteria also require biotin for growth.
The study was performed using the plate incorporation assay with and without S9 mix. S9 is composed by Aroclor 1254 induced rat liver supplemented with glucose-6-phosphate and NADP (Moltox®). The experiment was performed in duplicate Petri dishes containing basal medium and a further layer of medium containing histidine+biotin, the Salmonella typhimurium suspension, the sample to be tested at different concentrations and, if the case of metabolic activation, a 5% S9 mix. Dishes were incubated for 48 hours at 37° C. When the incubation time was over, a basal bacterial growth was achieved limited by the amount of histidine in the medium and in add the growth of revertant colonies (his+). In particular, the basic number of revertant colonies is steady, different for each strain, due to the spontaneous mutation rate of the bacterial strain. If an increase in the number of revertant colonies is observed, this is proportional to the tested sample concentration and to its mutagen capability. […]

Consider `C[C@@H]1C[C@H]2[C@@H]3CCC4=CC(=O)C=C[C@]4(C)[C@@]3(F)[C@@H](O)C[C@]2(C)[C@@]1(O)C(=O)CO` [Dexamethasone], for which the “IL6 secretions, normalized by number of fibroblasts” value is on record as 25% in the data set with secreted IL6 (D3, anti-inflammatory reference) and 85% in the data set on secreted IL6 (D6, compared to the coculture control).

Regarding `Nc1ccc2cc3ccccc3cc2c1` [2AAn, 2-aminoanthracene], in the data set with S. typhimurium TA 98, the “Statistically significant vs solvent control (p < 0.05)” value was “yes”; the “revertant, mean” value worked out at 3320 UFC/plate; the “revertant, single replicates” value is 3353 UFC/plate and 3291 UFC/plate and 3316 UFC/plate.

Take `COc1cc(C(C)=O)ccc1O` [Apocynin, apocynin]: in the data set with NADPH-oxidase complex, the “inhibition of the NADPH-oxidase complex” value is “effective inhibitor”.

For `CCCCCCCCCCCCOS(=O)(=O)[O-].[Na+]` [SLS 5%], in data set [1], the Classification result was “I (Irritant)”. Besides, the “% mean cell viability (ds)” value in data set [1] (tested undiluted) came out at 0.93%.
